Laboratory results from patent publication US20220380383A1, “NEUROPROTECTIVE PDI MODULATING SMALL MOLECULES AND METHODS OF USE THEREOF” (THE TRUSTEES OF COLUMBIA UNIVERSITY IN THE CITY OF NEW YORK, priority 2018, published 2022).
Values after ≈ are worked out from the molar mass of the structure shown. Read-outs that look alike come from different tables or passages of the source.

Experiments:
[1] = target: PDI (Homo sapiens, UniProt P07237); test: Enzymatic assay for inhibition of PDI using insulin as substrate; type: biochemical
[2] = target: T1, human catalytic PDI A1 a domain (PDIa) (Homo sapiens, UniProt P07237); test: Isothermal titration calorimetry (ITC) binding to PDIa
T1 construct: made in house; host or cells: Escherichia coli BL21-Gold (DE3)
Protocol: All ITC experiments were carried out at 25° C. on MicoCal Auto-ITC200 system (GE Healthcare). […] ITC titration experiments were carried out at 25° C. with 19 injections, 2 μl per injection, and 180 seconds between each injection. The reference cell power was set to 5 μcal/sec. A control experiment was performed for each compound, where each compound was titrated into buffer to account for heat released due to dilution. This background was subtracted from test data before a final dissociation constant was obtained. […] Gibbs free energy, ΔG, was calculated from equation ΔG=ΔH-TΔS. All other parameters, Ka, n, ΔH, ΔS, were determined directly from the titration data.
LOC14 analogs were designed and synthesized as described in the synthetic schemes. The analogs were evaluated for their binding to PDIa using isothermal titration calorimetry (ITC) (results of certain compounds are shown in FIGS. 1A-1E). Next, the analogs were tested for their ability to rescue PC12 cells from mHTT^Q103 induced cell death in a dose-dependent manner (results of certain compounds are shown in FIG. 2).

[3] = system: PC12 mHTTQ103 cells; test: Rescue of PC12 cells from mHTTQ103-induced cell death; type: cell-based, rat; conditions: for EC50: Rattus norvegicus
[4] = Solubility (stock solvent)
[5] = system: uninduced PC12 cells not expressing mHTTQ103; test: General cell toxicity in PC12 cell culture assay; type: cell-based
Protocol: Neuroprotection was assessed by each compound's ability to rescue cells from mutant-huntingtin-induced cell death (“Ind Q103” cells; blue). General cell toxicity of each compound was assessed in uninduced cells not expressing mutant-huntingtin protein (“Unind Q103” cells; red). NMP, DMSO, LOC14 in NMP and LOC14 in DMSO were used as controls.
Data from cells induced to express mHTT^Q103 (blue) and cells not expressing mHTT^Q103 (red) are plotted as mean percent of DMSO-treated uninduced cells±SD with n=3.
The follow-up testing of primary screen hits was performed in a similar way. Fresh powder stocks of primary hits were re-ordered from vendors, dissolved in DMSO and tested in a two-fold serial dilution across 10 wells in both tebufenozide-induced and uninduced PC12 mHTT^Q103 cells. Dose-response curves were plotted as mean±SD and fit to either four-parameter sigmoidal (for uninduced cells) or bell-shaped (induced) function using Prism (GraphPad Software).

[6] = physchem; conditions: organic solvent or mixture
[7] = target: T2, 15N-labeled PDIa (Homo sapiens, UniProt P07237); test: 1H-15N HSQC NMR of PDIa; type: binding
T2 construct: His6 (N, cleaved yes); made in house; host or cells: Escherichia coli BL21-Gold (DE3), M9 minimal medium with 15NH4Cl
Protocol: The ^1H-^15N HSQC spectra were performed on Bruker Avance III 500 Ascend (500 MHz) spectrometers at 300 K. The uniformly ^15N-labeled PDIa was dissolved at 50 μM or 100 μM in 90% H2O/10% D20 (v/v), pH 5.1. The ^1H carrier frequency was positioned at the water resonance. The ^15N carrier frequency was positioned at 115 ppm. The spectral width in the ^1H dimension was 7500 Hz and the width in ω1 (^15N) dimension was 1824.6 Hz. Suppression of water signal was accomplished using the WATERGATE sequence. Heteronuclear decoupling was accomplished using GARP decoupling scheme.

[8] = rescue from mHTTQ103 induced cell death
[9] = Tables 5-13, solvent not given (DMSO in Table 1)
[10] = PC-12, Tables 5-13, PC12 cells, read-out: EC50
[11] = N/A = not active, read-out: ITC KD
[12] = Tables 5-13, NA = not active, read-out: Kd
[13] = PC-12, rescue from mHTTQ103 induced cell death, read-out: PC12 cells EC50
[14] = FIG. 1, PDI A1a titrated into compound in 0.8% NMP, read-out: Kd1

T2 sequence (P07237 18-134): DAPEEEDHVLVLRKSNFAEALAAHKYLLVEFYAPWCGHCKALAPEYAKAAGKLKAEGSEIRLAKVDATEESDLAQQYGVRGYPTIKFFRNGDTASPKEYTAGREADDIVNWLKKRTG
T1 sequence (P07237 18-134): as above
PDI, sequence (P07237 18-508): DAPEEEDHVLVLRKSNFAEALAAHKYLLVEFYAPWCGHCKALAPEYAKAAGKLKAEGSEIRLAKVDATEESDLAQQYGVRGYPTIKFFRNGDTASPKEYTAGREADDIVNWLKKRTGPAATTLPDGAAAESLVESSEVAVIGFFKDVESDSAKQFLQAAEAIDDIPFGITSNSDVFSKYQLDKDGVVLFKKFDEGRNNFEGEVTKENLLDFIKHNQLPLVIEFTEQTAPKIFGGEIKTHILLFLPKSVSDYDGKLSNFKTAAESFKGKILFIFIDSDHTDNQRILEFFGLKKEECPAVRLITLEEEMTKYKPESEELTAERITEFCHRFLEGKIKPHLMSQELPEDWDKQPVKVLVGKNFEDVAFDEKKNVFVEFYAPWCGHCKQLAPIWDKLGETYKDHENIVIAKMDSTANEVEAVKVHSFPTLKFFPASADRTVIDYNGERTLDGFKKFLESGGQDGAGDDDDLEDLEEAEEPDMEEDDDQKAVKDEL

Solubility [4] [mM in DMSO]	Solubility [6] [mM]	Kd [2, 12] [nM]	SMILES	inhibition of enzymatic (reductase) activity of PDI [1]	Max Viability (%) ([3]; Tables 5-13, PC12 cells)	PC12 cells Max % Viability [3, 8] [%]	ITC KD ([2]; N/A = not active)	toxicity in PC12 cell culture assay [5]	EC50 [3, 10] [nM]	EC50 [3, 13] [nM]	other results
–	–	–	O=c1c2ccccc2sn1-c1ccccc1 [LC-24]	did not inhibit PDI's reductase activity	31	30.83	–	–	–	–	Kd ([2]; Tables 6, 11, 12, read-out: Kd (nM), first value of two-site binding): 8 nM; Kd ([2]; Tables 6, 11, 12, read-out: Kd (nM), second value of two-site binding): 1140 nM; Kd ([2]; read-out: KD2): 1140 nM; EC50 ([3]; PC-12): 1130 nM; EC50 ([3]; PC-12, read-out: PC12 cells EC50): 1130 nM
–	–	–	Cc1ccc(-n2sc3ccccc3c2=O)c(Br)c1 [LC-36]	did not inhibit PDI's reductase activity	15	–	–	–	–	–	Solubility [4, 9]: 100 mM (≈ 32 mg/mL); Kd ([2]; read-out: KD2): 25 nM
–	–	–	Cc1nc2s[nH]c(=O)c2c(C)c1C [LC-51]	did inhibit the enzymatic activity of PDI	63	63.14	KD = N/A irreversible or not active	complete loss of toxicity	2200	–	binding to PDI by ITC [2]: could not be detected by ITC; chemical shift changes in PDIa (1H-15N HSQC) [7]: induced the same chemical shifts in PDI as LOC14
–	–	–	Cc1nc2sn(CN3CCN(C(=O)C4CC4)CC3)c(=O)c2c(C)c1C [LC-52]	did inhibit the enzymatic activity of PDI	68	68.30	KD = N/A irreversible or not active	complete loss of toxicity	3570	–	binding to PDI by ITC [2]: could not be detected by ITC; chemical shift changes in PDIa (1H-15N HSQC) [7]: induced the same chemical shifts in PDI as LOC14
–	–	–	Cc1cc(C)c2c(=O)n(CN3CCN(C(=O)C4CC4)CC3)sc2n1 [LC-53]	did inhibit the enzymatic activity of PDI	67	67.25	KD = N/A irreversible or not active	complete loss of toxicity	4250	4250	binding to PDI by ITC [2]: could not be detected by ITC; chemical shift changes in PDIa (1H-15N HSQC) [7]: induced the same chemical shifts in PDI as LOC14
100	100 (≈ 34.7 mg/mL)	8	Cc1nnc2sn(CN3CCN(C(=O)C4CC4)CC3)c(=O)c2c1C [LC-59]	–	59	59.20	–	–	10600	10600	Kd [2, 11]: 8.2 nM
–	50 (≈ 16.6 mg/mL)	1210	O=c1c2ccccc2sn1CN1CCC(N2CCCCC2)CC1 [LC-64, 2-([1,4′-bipiperidin]-1′-ylmethyl)benzo[d]isothiazol-3(2H)-one]	–	81	81.43	–	–	393	393	Solubility ([6]; DMSO): 50 mM (≈ 16.6 mg/mL); Kd ([2]; read-out: ITC KD): 1210 nM
100	100 (≈ 25 mg/mL)	162	O=c1c2ccccc2sn1CN1CC[C@@H](O)C1 [LC-65, (R)-2-((3-hydroxypyrrolidin-1-yl)methyl)benzo[d]isothiazol-3(2H)-one]	–	77	77.01	–	–	456	456	Kd [2, 11]: 162 nM
–	–	–	O=c1c2cccnc2sn1CN1CCN(Cn2sc3ncccc3c2=O)CC1 [LC-68, 2,2′-(piperazine-1,4-diylbis(methylene))bis(isothiazolo[5,4-b]pyridin-3(2H)-one)]	–	36	35.78	Not active or irreversible	–	2060	2060	Solubility ([6]; NMP (N-Methyl-2-Pyrrolidine)): 5 mM (≈ 2.07 mg/mL); Solubility ([6]; NMP): 5 mM (≈ 2.07 mg/mL); ITC binding ([2]; FIG. 1, PDI A1a titrated into compound in 0.8% NMP): no binding
–	–	700	O=c1c2cccc(F)c2sn1CN1CCN(Cn2sc3c(F)cccc3c2=O)CC1 [LC-69, 2,2′-(piperazine-1,4-diylbis(methylene))bis(7-fluorobenzo[d]isothiazol-3(2H)-one)]	–	46	45.50	–	–	1970	1970	Solubility ([6]; NMP (N-Methyl-2-Pyrrolidine)): 5 mM (≈ 2.24 mg/mL); Solubility ([6]; NMP): 5 mM (≈ 2.24 mg/mL); Kd [2, 14]: 700 nM; Kd [2, 11]: 700 nM
100	100 (≈ 18.2 mg/mL)	–	O=c1c2cccnc2sn1CO [LC-73, 2-(hydroxymethyl)isothiazolo[5,4-b]pyridin-3(2H)-one]	–	63	63.16	–	–	2480	2480	Kd ([2]; FIG. 1, PDI A1a titrated into compound in DMSO, read-out: Kd): 9.8 nM; Kd ([2]; ITC assay, read-out: KD): 10 nM

SMILES	Solubility [4] [mM in DMSO]	Solubility [6] [mM]	Kd [2, 12] [nM]	inhibition of enzymatic (reductase) activity of PDI [1]	Max Viability (%) ([3]; Tables 5-13, PC12 cells)	PC12 cells Max % Viability [3, 8] [%]	ITC KD ([2]; N/A = not active)	toxicity in PC12 cell culture assay [5]	EC50 [3, 10] [nM]	EC50 [3, 13] [nM]	other results
O=c1[nH]sc2c(F)cccc12 [LC-40, 7-fluorobenzo[d]isothiazol-3(2H)-one]	100	–	–	able to inhibit the enzymatic activity of PDI	72	72.31	KD = N/A irreversible or not active	decreased cellular toxicity	9320	–	Solubility [4, 9]: 100 mM (≈ 16.9 mg/mL); binding to PDI by ITC [2]: showed no binding to the protein by ITC
Cc1cc(C)c2c(=O)[nH]sc2n1 [LC-50]	100	100 (≈ 18 mg/mL)	3830	–	65	65.19	–	complete loss of toxicity	5180	5180	Kd [2, 11]: 3830 nM
Cc1cc(C)c2c(=O)n(CN3CCN(Cn4sc5nc(C)cc(C)c5c4=O)CC3)sc2n1 [LC-70, 2,2′-(piperazine-1,4-diylbis(methylene))bis(4,6-dimethylisothiazolo[5,4-b]pyridin-3(2H)-one)]	–	–	3800	–	59	59.18	–	–	3090	3090	Solubility ([6]; NMP (N-Methyl-2-Pyrrolidine)): 5 mM (≈ 2.35 mg/mL); Solubility ([6]; NMP): 5 mM (≈ 2.35 mg/mL); Kd [2, 14]: 3800 nM; Kd ([2]; read-out: ITC KD): 3800 nM
